Laboratory results from patent US20240190849A1, “AMINOPYRIMIDINE COMPOUNDS AND METHODS OF THEIR USE” (TYRA BIOSCIENCES, INC., priority 2021, published 2024).

What was measured:
Conditions in all cases: FGFR binding data
[1] = target: T1, FGFR1 (Homo sapiens, UniProt P11362); assay: Kinase binding assay (kinase-tagged T7 phage, affinity beads, qPCR readout), FGFR1
T1 construct: made in house; host or cells: E. coli derived from BL21, infected with T7 phage
Experimental: (§1) Kinase-tagged T7 phage strains were prepared in an E. coli host derived from the BL21 strain. E. coli were grown to log-phase and infected with T7 phage and incubated with shaking at 32° C. until lysis. The lysates were centrifuged and filtered to remove cell debris. Streptavidin-coated magnetic beads were treated with biotinylated small molecule ligands for 30 minutes at room temperature to generate affinity resins for kinase assays. The liganded beads were blocked with excess biotin and washed with blocking buffer SeaBlock (Pierce), 1% BSA, 0.05% Tween 20, 1 mM DTT to remove unbound ligand and to reduce non-specific binding. Binding reactions were assembled by combining kinases, liganded affinity beads, and test compounds in 1× binding buffer (20% SeaBlock, 0.17×PBS, 0.05% Tween 20, 6 mM DTT).
(§2) Test compounds were prepared as 111× stocks in 100% DMSO. Kds were determined using an 11-point 3-fold compound dilution series with three DMSO control points. All compounds for Kd measurements are distributed by acoustic transfer (non-contact dispensing) in 100% DMSO. The compounds were then diluted directly into the assays such that the final concentration of DMSO was 0.9%. All reactions performed in polypropylene 384-well plate. Each was a final volume of 0.02 ml. The assay plates were incubated at room temperature with shaking for 1 hour and the affinity beads were washed with wash buffer (1×PBS, 0.05% Tween 20). The beads were then re-suspended in elution buffer (1×PBS, 0.05% Tween 20, 0.5 μM non-biotinylated affinity ligand) and incubated at room temperature with shaking for 30 minutes. The kinase concentration in the eluates was measured by qPCR.
(§3) Binding constants were calculated with a standard dose-response curve using the Hill equation: […]
(§4) The Hill Slope was set to −1. Curves were fitted using a non-linear least square fit with the Levenberg-Marquardt algorithm.

[2] = target: T2, FGFR2 (Homo sapiens, UniProt P21802); assay: Kinase binding assay (kinase-tagged T7 phage, affinity beads, qPCR readout), FGFR2
T2 construct: made in house; host or cells: E. coli derived from BL21, infected with T7 phage
Experimental: as §1, §2, §3, §4

[3] = target: T3, FGFR3 (Homo sapiens, UniProt P22607); assay: Kinase binding assay (kinase-tagged T7 phage, affinity beads, qPCR readout), FGFR3
T3 construct: made in house; host or cells: E. coli derived from BL21, infected with T7 phage
Experimental: as §1, §2, §3, §4

[4] = target: T4, FGFR3 (V555M) (Homo sapiens, UniProt P22607, V555M); assay: Kinase binding assay (kinase-tagged T7 phage, affinity beads, qPCR readout), FGFR3 (V555M)
T4 construct: made in house; host or cells: E. coli derived from BL21, infected with T7 phage
Experimental: as §1, §2, §3, §4

T3 sequence (P22607 23-806): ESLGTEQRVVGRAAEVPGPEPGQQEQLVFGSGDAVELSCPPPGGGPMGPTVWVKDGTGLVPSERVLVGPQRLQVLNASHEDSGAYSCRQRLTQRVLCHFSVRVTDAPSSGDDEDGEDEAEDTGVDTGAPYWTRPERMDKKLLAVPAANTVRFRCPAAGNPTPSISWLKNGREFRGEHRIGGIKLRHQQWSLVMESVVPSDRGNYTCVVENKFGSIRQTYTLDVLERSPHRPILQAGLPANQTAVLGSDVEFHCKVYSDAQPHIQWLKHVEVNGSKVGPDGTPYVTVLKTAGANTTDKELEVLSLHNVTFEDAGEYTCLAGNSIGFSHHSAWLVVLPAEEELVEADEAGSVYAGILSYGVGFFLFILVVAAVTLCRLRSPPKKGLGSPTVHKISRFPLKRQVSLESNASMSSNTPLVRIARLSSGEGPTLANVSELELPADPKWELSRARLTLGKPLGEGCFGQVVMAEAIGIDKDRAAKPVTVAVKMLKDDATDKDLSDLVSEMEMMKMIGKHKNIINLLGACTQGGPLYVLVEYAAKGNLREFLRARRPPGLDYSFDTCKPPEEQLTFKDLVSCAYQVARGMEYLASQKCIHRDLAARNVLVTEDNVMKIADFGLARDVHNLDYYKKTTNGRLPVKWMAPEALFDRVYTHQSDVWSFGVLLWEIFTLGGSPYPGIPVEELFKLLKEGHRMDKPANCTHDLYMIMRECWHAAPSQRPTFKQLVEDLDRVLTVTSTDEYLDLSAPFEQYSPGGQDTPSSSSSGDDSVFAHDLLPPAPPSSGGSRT
T2 sequence (P21802 22-821): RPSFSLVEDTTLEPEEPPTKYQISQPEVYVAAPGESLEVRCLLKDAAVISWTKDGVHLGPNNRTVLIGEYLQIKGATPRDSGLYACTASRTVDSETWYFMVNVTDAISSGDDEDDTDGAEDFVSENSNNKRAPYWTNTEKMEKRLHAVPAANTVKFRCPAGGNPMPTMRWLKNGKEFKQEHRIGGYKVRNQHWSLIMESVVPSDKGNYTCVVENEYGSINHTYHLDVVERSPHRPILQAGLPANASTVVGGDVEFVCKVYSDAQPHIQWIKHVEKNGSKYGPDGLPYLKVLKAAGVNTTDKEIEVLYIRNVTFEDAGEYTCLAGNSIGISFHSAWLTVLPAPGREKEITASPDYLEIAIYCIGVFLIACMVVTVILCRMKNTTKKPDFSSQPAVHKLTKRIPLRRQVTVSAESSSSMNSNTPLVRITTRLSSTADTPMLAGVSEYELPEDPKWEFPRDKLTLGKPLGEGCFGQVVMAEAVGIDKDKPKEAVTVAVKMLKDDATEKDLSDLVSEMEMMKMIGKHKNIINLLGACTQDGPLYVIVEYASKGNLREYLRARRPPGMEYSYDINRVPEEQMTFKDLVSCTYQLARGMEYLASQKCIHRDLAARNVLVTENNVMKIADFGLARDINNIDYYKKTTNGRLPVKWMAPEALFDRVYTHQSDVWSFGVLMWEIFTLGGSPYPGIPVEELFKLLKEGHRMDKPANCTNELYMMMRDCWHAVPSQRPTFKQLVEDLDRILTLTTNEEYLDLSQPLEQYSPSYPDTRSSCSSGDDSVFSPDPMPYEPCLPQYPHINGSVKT
T1 sequence (P11362 22-822): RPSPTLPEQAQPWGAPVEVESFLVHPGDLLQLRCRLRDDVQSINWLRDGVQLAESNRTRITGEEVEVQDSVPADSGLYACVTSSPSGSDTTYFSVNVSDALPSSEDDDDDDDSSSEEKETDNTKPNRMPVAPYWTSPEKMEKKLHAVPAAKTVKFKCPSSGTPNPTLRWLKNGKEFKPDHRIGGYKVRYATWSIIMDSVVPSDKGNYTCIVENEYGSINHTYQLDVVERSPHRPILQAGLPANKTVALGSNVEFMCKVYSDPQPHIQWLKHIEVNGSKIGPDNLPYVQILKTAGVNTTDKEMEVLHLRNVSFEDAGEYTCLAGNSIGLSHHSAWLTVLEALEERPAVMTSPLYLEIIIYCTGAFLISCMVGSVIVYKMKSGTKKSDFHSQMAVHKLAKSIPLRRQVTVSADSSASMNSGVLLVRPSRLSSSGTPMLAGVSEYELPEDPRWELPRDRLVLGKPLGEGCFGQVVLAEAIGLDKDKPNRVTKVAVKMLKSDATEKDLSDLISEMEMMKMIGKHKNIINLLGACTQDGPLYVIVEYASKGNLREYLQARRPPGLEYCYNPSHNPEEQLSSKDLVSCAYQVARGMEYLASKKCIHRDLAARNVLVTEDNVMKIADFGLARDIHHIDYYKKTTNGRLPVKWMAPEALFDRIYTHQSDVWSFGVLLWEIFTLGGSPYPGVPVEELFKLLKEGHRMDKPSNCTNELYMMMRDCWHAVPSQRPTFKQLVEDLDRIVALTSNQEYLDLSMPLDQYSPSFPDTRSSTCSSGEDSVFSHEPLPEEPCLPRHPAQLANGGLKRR
T4 sequence (P22607 23-806 V555M): as the sequence (P22607 23-806) above, with V533M counted along it

Structure (SMILES)	Kd [1]	Kd [2]	Kd [3]	Kd [4]
C=CC(=O)Nc1ccc2c(ccn2-c2nc(Nc3ccc(N(C)CCN(C)C)cc3)ncc2Cl)c1 [Example 3, N-[1-[5-chloro-2-[4-[2-(dimethylamino)ethyl-methyl-amino]anilino]pyrimidin-4-yl]indol-5-yl]prop-2-enamide]	0.1 to 100 nM	0.1 to 100 nM	0.1 to 100 nM	0.1 to 100 nM
CCC(=O)Nc1ccc2c(ccn2-c2nc(Nc3ccc(N4CCN(C)CC4)cc3)ncc2Cl)c1 [Example 4, N-[1-[5-chloro-2-[4-(4-methylpiperazin-1-yl)anilino]pyrimidin-4-yl]indol-5-yl]propanamide]	0.1 to 100 nM	250 to 1000 nM	100 to 250 nM	0.1 to 100 nM
C=CC(=O)Nc1ccc2c(ccn2-c2nc(Nc3cccc(OCCN4CCOCC4)c3)ncc2C)c1C [Example 5, N-[4-methyl-1-[5-methyl-2-[3-(2-morpholinoethoxy)anilino]pyrimidin-4-yl]indol-5-yl]prop-2-enamide]	250 to 1000 nM	100 to 250 nM	100 to 250 nM	0.1 to 100 nM
C=CC(=O)Nc1ccc2c(ccn2-c2nc(Nc3cccc(OCCN4CCOCC4)c3)ncc2Cl)c1 [Example 6, N-[1-[5-chloro-2-[3-(2-morpholinoethoxy)anilino]pyrimidin-4-yl]indol-5-yl]prop-2-enamide]	250 to 1000 nM	250 to 1000 nM	250 to 1000 nM	0.1 to 100 nM
C=CC(=O)Nc1ccc2c(ccn2-c2nc(Nc3cn(C)nc3OC)ncc2Cl)c1 [Example 12, N-[1-[5-chloro-2-[(3-methoxy-1-methyl-pyrazol-4-yl)amino]-pyrimidin-4-yl]indol-5-yl]prop-2-enamide]	250 to 1000 nM	> 1000 nM	100 to 250 nM	0.1 to 100 nM
C=CC(=O)Nc1ccc2c(ccn2-c2nc(Nc3ccccc3OCCN3CCOCC3)ncc2Cl)c1 [Example 13, N-[1-[5-chloro-2-[2-(2-morpholinoethoxy)anilino]pyrimidin-4-yl]indol-5-yl]prop-2-enamide]	> 1000 nM	> 1000 nM	> 1000 nM	> 1000 nM
C=CC(=O)Nc1ccc2c(ccn2-c2nc(Nc3cn(C)nc3OCC)ncc2Cl)c1 [Example 14, N-[1-[5-chloro-2-[(3-ethoxy-1-methyl-pyrazol-4-yl)amino]pyrimidin-4-yl]indol-5-yl]prop-2-enamide]	250 to 1000 nM	> 1000 nM	> 1000 nM	100 to 250 nM
C=CC(=O)Nc1ccc2c(ccn2-c2nc(Nc3cnn(C)c3)ncc2Cl)c1C [Example 18, N-[1-[5-chloro-2-[(1-methylpyrazol-4-yl)amino]pyrimidin-4-yl]-4-methyl-indol-5-yl]prop-2-enamide]	100 to 250 nM	100 to 250 nM	100 to 250 nM	0.1 to 100 nM
C=CC(=O)Nc1ccc2c(ccn2-c2nc(Nc3ccccc3OCC)ncc2Cl)c1 [Example 20, N-[1-[5-chloro-2-(2-ethoxyanilino)pyrimidin-4-yl]indol-5-yl]prop-2-enamide]	> 1000 nM	> 1000 nM	> 1000 nM	> 1000 nM
C=CC(=O)Nc1ccc2c(c1)c(C)cn2-c1nc(Nc2c(C)cccc2OCC)ncc1Cl [Example 29, N-[1-[5-chloro-2-(2-ethoxy-6-methyl-anilino)pyrimidin-4-yl]-3-methyl-indol-5-yl]prop-2-enamide]	> 1000 nM	> 1000 nM	> 1000 nM	> 1000 nM
C=CC(=O)Nc1ccc2c(c1)c(C)cn2-c1nc(Nc2c(C)cccc2OCC)ncc1C#N [Example 33, N-[1-[5-cyano-2-(2-ethoxy-6-methyl-anilino)pyrimidin-4-yl]-3-methyl-indol-5-yl]prop-2-enamide]	> 1000 nM	> 1000 nM	> 1000 nM	> 1000 nM
C=CC(=O)Nc1ccc2c(c1)c(C)cn2-c1nc(Nc2cn(C)nc2OC)ncc1C#N [Example 37, N-[1-[5-cyano-2-[(3-methoxy-1-methyl-pyrazol-4-yl)amino]pyrimidin-4-yl]-3-methyl-indol-5-yl]prop-2-enamide]	100 to 250 nM	0.1 to 100 nM	100 to 250 nM	0.1 to 100 nM
C=CC(=O)Nc1ccc2c(c1)c(C)cn2-c1nc(Nc2ccccc2OCC)ncc1C#N [Example 39, N-[1-[5-cyano-2-(2-ethoxyanilino)pyrimidin-4-yl]-3-methyl-indol-5-yl]prop-2-enamide]	> 1000 nM	> 1000 nM	> 1000 nM	> 1000 nM
C=CC(=O)Nc1ccc2c(c1)c(C)cn2-c1nc(Nc2ccc3ncnn3c2)ncc1Cl [Example 47, N-[1-[5-chloro-2-([1,2,4]triazolo[1,5-a]pyridin-6-ylamino)pyrimidin-4-yl]-3-methyl-indol-5-yl]prop-2-enamide]	100 to 250 nM	0.1 to 100 nM	0.1 to 100 nM	0.1 to 100 nM

Further lines, results first:

Kd [1]	Kd [2]	Kd [3]	Kd [4]	Structure (SMILES)
> 1000 nM	> 1000 nM	> 1000 nM	> 1000 nM	C=CC(=O)Nc1ccc2c(ccn2-c2nc(Nc3ccc(N4CCOCC4)cc3OCC)ncc2Cl)c1 [Example 11, N-[1-[5-chloro-2-(2-ethoxy-4-morpholino-anilino)pyrimidin-4-yl]indol-5-yl]prop-2-enamide]
100 to 250 nM	0.1 to 100 nM	0.1 to 100 nM	0.1 to 100 nM	C=CC(=O)Nc1ccc2c(ccn2-c2nc(Nc3ccc(N4CCOCC4)cc3)ncc2Cl)c1 [Example 15, N-[1-[5-chloro-2-(4-morpholinoanilino)pyrimidin-4-yl]indol-5-yl]prop-2-enamide]
250 to 1000 nM	250 to 1000 nM	0.1 to 100 nM	0.1 to 100 nM	C=CC(=O)Nc1ccc2c(ccn2-c2nc(Nc3ccc(N4CCOCC4)c(F)c3)ncc2Cl)c1 [Example 16, N-[1-[5-chloro-2-(3-fluoro-4-morpholino-anilino)pyrimidin-4-yl]indol-5-yl]prop-2-enamide]
250 to 1000 nM	250 to 1000 nM	100 to 250 nM	0.1 to 100 nM	C=CC(=O)Nc1ccc2c(ccn2-c2nc(Nc3ccc(N4CCOCC4)c(F)c3)ncc2Cl)c1C [Example 17, N-[1-[5-chloro-2-(3-fluoro-4-morpholino-anilino)pyrimidin-4-yl]-4-methyl-indol-5-yl]prop-2-enamide]
250 to 1000 nM	0.1 to 100 nM	100 to 250 nM	0.1 to 100 nM	C=CC(=O)Nc1ccc2c(ccn2-c2nc(Nc3ccc(OCCN4CCOCC4)cc3)ncc2Cl)c1C [Example 21, N-[1-[5-chloro-2-[4-(2-morpholinoethoxy)anilino]pyrimidin-4-yl]-4-methyl-indol-5-yl]prop-2-enamide]
0.1 to 100 nM	0.1 to 100 nM	0.1 to 100 nM	0.1 to 100 nM	C=CC(=O)Nc1ccc2c(-c3nc(Nc4ccc(OC)c(OC)c4)ncc3Cl)cn(C)c2c1 [Example 31, N-[3-[5-chloro-2-(3,4-dimethoxyanilino)pyrimidin-4-yl]-1-methyl-indol-6-yl]prop-2-enamide]
0.1 to 100 nM	0.1 to 100 nM	0.1 to 100 nM	0.1 to 100 nM	C=CC(=O)Nc1ccc2c(-c3nc(Nc4ccc(N5CCOCC5)nc4)ncc3Cl)cn(C)c2c1 [Example 45, N-[3-[5-chloro-2-[(6-morpholino-3-pyridyl)amino]pyrimidin-4-yl]-1-methyl-indol-6-yl]prop-2-enamide]
0.1 to 100 nM	0.1 to 100 nM	0.1 to 100 nM	0.1 to 100 nM	C=CC(=O)Nc1ccc2c(c1)c(C)cn2-c1nc(Nc2ccc(N3CCOCC3)c(OC)c2)ncc1C [Example 46, N-[1-[2-(3-methoxy-4-morpholino-anilino)-5-methyl-pyrimidin-4-yl]-3-methyl-indol-5-yl]prop-2-enamide]
0.1 to 100 nM	0.1 to 100 nM	0.1 to 100 nM	0.1 to 100 nM	C=CC(=O)Nc1ccc2c(-c3nc(Nc4ccc(N5CCN(C)CC5)c(OC)c4)ncc3Cl)cn(C)c2c1 [Example 48, N-[3-[5-chloro-2-[3-methoxy-4-(4-methylpiperazin-1-yl)anilino]-pyrimidin-4-yl]-1-methyl-indol-6-yl]prop-2-enamide]
0.1 to 100 nM	0.1 to 100 nM	0.1 to 100 nM	0.1 to 100 nM	C=CC(=O)Nc1ccc2c(-c3nc(Nc4ccc(N5CCOCC5)c(OC)c4)ncc3Cl)cn(C)c2c1 [Example 51, N-[3-[5-chloro-2-(3-methoxy-4-morpholino-anilino)pyrimidin-4-yl]-1-methyl-indol-6-yl]prop-2-enamide]
0.1 to 100 nM	0.1 to 100 nM	0.1 to 100 nM	0.1 to 100 nM	C=CC(=O)Nc1ccc2c(-c3nc(Nc4ccc(N5CCOCC5)cc4)ncc3C)cn(C)c2c1 [Example 52, N-[1-Methyl-3-[5-methyl-2-(4-morpholinoanilino)pyrimidin-4-yl]indol-6-yl]prop-2-enamide]
